Results taken from patent US8314123B2, “5, 6, or 7-substituted -3-(hetero) arylisoquinolinamine derivatives and therapeutic use thereof” (Rexahn Pharmaceuticals, Inc., priority 2006, dated 2012).

Assays:
Type in all cases: cell-based
MDA-MB-231 (breast) = assay: In vitro cell proliferation assay (SRB), MDA-MB-231; conditions: Homo sapiens, SRB method, 96 hours, read-out: Inhibition of cell growth (IC50, μM) MDA-MB-231
Method: (§1) Cancer cell lines to determine the effect of 5, 6, or 7-substituted-3-(hetero)arylisoquinolinamine compounds were obtained from the following sources: Human MDA-MB-231 (breast), PC3 (prostate), HCT-15 (colon), HCT116 (colon), OVCAR-3 (ovary), Caki-1 (kidney), PANC-1 (pancreas), SNB-19 (glioblastoma) and SK-MEL-28 (melanoma) from the American Type Culture Collection (ATCC) (Manassas, Va.). PC3, OVCAR-3, SK-MEL-28 and SNB-19 were grown in RPMI1640 medium (Invitrogen, Carlsbad, Calif.) supplemented with 10% fetal bovine serum (“FBS”), 1 mM sodium pyruvate, 10 mM HEPES and 100 U/ml penicillin and 100 μg/ml streptomycin (“P/S”). MDA-MB-231, Caki-1, HCT-15 (colon) and PANC-1 cells were maintained in Dulbecco's modified Eagle's medium (“DMEM”, Invitrogen) supplemented with 10% FBS, P/S and 10 mM HEPES. HCT116 cells were maintained in DMEM supplemented with 10% FBS, P/S and 10 mM HEPES for in vitro cell proliferation assay and in RPMI1640 medium supplemented with 10% FBS, 1 mM sodium pyruvate, 10 mM HEPES and P/S for in vitro cell cycle analysis. All cells were incubated at 37° C. under humidified 5% CO2.
(§2) The growth inhibition of the 5, 6, or 7-substituted-3-(hetero)arylisoquinolinamine derivatives against a variety of human tumor cells was evaluated to study the relative importance of particular substituent groups on the compounds. The 5, 6, or 7-substituted-3-(hetero)arylisoquinolinamine derivatives, prepared as described above, were tested with DMSO as a control.
(§3) The growth inhibition assay of representative 5, 6, or 7-substituted-3-(hetero)arylisoquinolinamine derivatives against human tumor cell lines was performed using the Sulforhodamine B (“SRB”) method (Skehan et al., J. National Cancer Institute, 82: 1107-1112 (1990)). Briefly, exponentially growing tumor cells were seeded into a 96-well plate at a density of 2-3×10^3 cells/well and treated with 5, 6, or 7-substituted-3-(hetero)arylisoquinolinamine compounds the next day. Triplicate wells were used for each treatment. The cells were incubated with the various compounds for 96 hours at 37° C. in a humidified 5% CO2 atmosphere. After 96-hour incubation, cells were fixed with 10% trichloroacetic acid (“TCA”), incubated for 1 hour at 4° C., and washed 3 times with tap water. Subsequently, cells were stained with 0.4% sulforhodamine B in 1% acetic acid for 30 minutes, washed 4 times with 1% acetic acid, and air-dried again. After 5 minutes agitation in 10 mM Tris solution, the absorbance of each well was measured at 530 nm using Benchmark Plus Microplate reader (Bio-Rad Laboratories, Hercules, Calif.).
(§4) To translate the OD530 values into the number of live cells in each well, the OD530 values were compared to those on standard OD530-versus-cell number curves generated for each cell line. The percent survival was calculated using the formula: % Survival=live cell number [test]/live cell number [control]×100
(§5) The IC50 values were calculated by non-linear regression analysis.

PANC-1 (pancreas) = assay: In vitro cell proliferation assay (SRB), PANC-1; conditions: Homo sapiens, SRB method, 96 hours, read-out: Inhibition of cell growth (IC50, μM) PANC-1
Method: as §1, §2, §3, §4, §5

HCT116 (colon) = assay: In vitro cell proliferation assay (SRB), HCT116; conditions: Homo sapiens, HCT-116; SRB method, 96 hours; Table 3; read-out: Inhibition of cell growth (IC50, μM) HCT116
Method: as §1, §2, §3, §4, §5

PC3 (prostate) = assay: In vitro cell proliferation assay (SRB), PC3; conditions: Homo sapiens; SRB method, 96 hours; read-out: Inhibition of cell growth (IC50, μM) PC3
Method: as §1, §2, §3, §4, §5

OVCAR-3 (ovary) = assay: In vitro cell proliferation assay (SRB), OVCAR3; conditions: Homo sapiens, SRB method, 96 hours, read-out: Inhibition of cell growth (IC50, μM) OVCAR3
Method: as §1, §2, §3, §4, §5

SK-MEL-28 (melanoma) = assay: In vitro cell proliferation assay (SRB), SK-MEL-28; conditions: Homo sapiens, SRB method, 96 hours, read-out: Inhibition of cell growth (IC50, μM) SK-MEL-28
Method: as §1, §2, §3, §4, §5

Caki-1 (kidney) = assay: In vitro cell proliferation assay (SRB), Caki-1; conditions: Homo sapiens, SRB method, 96 hours, read-out: Inhibition of cell growth (IC50, μM) Caki-1
Method: as §1, §2, §3, §4, §5

SNB-19 (glioblastoma) = assay: In vitro cell proliferation assay (SRB), SNB19; conditions: Homo sapiens, SRB method, 96 hours, read-out: Inhibition of cell growth (IC50, μM) SNB19
Method: as §1, §2, §3, §4, §5

Compound | IC50 (MDA-MB-231 (breast)) | IC50 (PANC-1 (pancreas)) | IC50 (HCT116 (colon)) | IC50 (PC3 (prostate)) | IC50 (OVCAR-3 (ovary)) | IC50 (SK-MEL-28 (melanoma)) | IC50 (Caki-1 (kidney)) | IC50 (SNB-19 (glioblastoma))
COc1cc2cc(-c3cccc(C)c3)nc(N)c2cc1OC [Compound 54, 6,7-Dimethoxy-3-m-tolylisoquinolin-1-amine] | 0.79 µM | 2.27 µM | 2.32 µM | 2.5 µM | 0.58 µM | 1.12 µM | 1.78 µM | 1.56 µM
Cc1cccc(-c2cc3ccc(C)cc3c(N)n2)c1 [Compound 49, 7-Methyl-3-m-tolylisoquinolin-1-amine] | 0.21 µM | 0.69 µM | 0.28 µM | 0.71 µM | 0.29 µM | 0.5 µM | 0.44 µM | 0.53 µM
COc1cccc(-c2cc3ccc(C)cc3c(N)n2)c1 [Compound 38, 3-(3-Methoxyphenyl)-7-methylisoquinolin-1-amine] | 0.17 µM | 0.47 µM | 0.21 µM | 0.42 µM | 0.24 µM | 0.41 µM | 0.14 µM | 0.48 µM
COc1ccccc1-c1cc2cc(C)ccc2c(N)n1 [Compound 24, 3-(2-Methoxyphenyl)-6-methylisoquinolin-1-amine] | 0.44 µM | 0.93 µM | 0.67 µM | > 3 µM | 0.49 µM | 0.8 µM | 0.35 µM | 1.13 µM
COc1cc2cc(-c3ccccc3)nc(N)c2cc1OC [Compound 51, 6,7-Dimethoxy-3-phenylisoquinolin-1-amine] | 0.44 µM | 0.67 µM | 0.52 µM | 0.58 µM | 0.27 µM | 0.75 µM | 0.59 µM | 0.71 µM
COc1ccc(-c2cc3cc(C)ccc3c(N)n2)cc1 [Compound 26, 3-(4-Methoxyphenyl)-6-methylisoquinolin-1-amine] | 0.93 µM | 2.27 µM | 1.36 µM | 2.98 µM | 0.79 µM | 1.8 µM | 0.75 µM | 2.23 µM
COc1ccc2c(N)nc(-c3ccccc3)cc2c1 [Compound 11, 6-methoxy-3-phenylisoquinolin-1-amine] | 0.34 µM | 0.65 µM | 0.45 µM | 0.77 µM | 0.27 µM | 0.46 µM | 0.47 µM | 0.63 µM
COc1cc(OC)cc(-c2cc3cc(OC)c(OC)cc3c(N)n2)c1 [Compound 55, 6,7-Dimethoxy-3-(3,5-dimethoxyphenyl)isoquinolin-1-amine] | 0.4 µM | 0.7 µM | 0.77 µM | 0.72 µM | 0.19 µM | 0.69 µM | 0.54 µM | 0.4 µM
COc1cc(OC)cc(-c2cc3cc(C)ccc3c(N)n2)c1 [Compound 30, 3-(3,5-Dimethoxyphenyl)-6-methylisoquinolin-1-amine] | 0.18 µM | 0.38 µM | 0.24 µM | 0.43 µM | 0.18 µM | 0.41 µM | 0.16 µM | 0.47 µM
Cc1ccc2c(N)nc(-c3ccccc3F)cc2c1 [Compound 33, 3-(2-Fluorophenyl)-6-methylisoquinolin-1-amine] | 0.55 µM | 1.59 µM | 0.7 µM | 1.84 µM | 0.57 µM | 1.07 µM | 0.46 µM | 1.51 µM
